Reference: ChEMBL document CHEMBL1148029, “Synthesis and radiopharmacological characterization of 2beta-carbo-2'-[18F]fluoroethoxy-3beta-(4-bromo-phenyl)tropane ([18F]MCL-322) as a PET radiotracer for imaging the dopamine transporter (DAT)” (Bioorg Med Chem, 2007)

Assays:
Kidney [1] = assay: Biodistribution in Wistar rat kidney at 300 uCi, iv after 120 mins; type: ADME, organism-based; conditions: in vivo, 2 h
[2] = Biodistribution in Wistar rat hair and skin at 300 uCi, iv after 5 mins; type: ADME, organism-based; conditions: in vivo
Striatum [3] = assay: Biodistribution in Wistar rat striatum at 300 uCi, iv after 5 mins; type: ADME, organism-based; conditions: in vivo
Blood [4] = assay: Biodistribution in Wistar rat blood at 300 uCi, iv after 120 mins; type: ADME, organism-based; conditions: in vivo, 2 h
Hippocampus [5] = assay: Biodistribution in Wistar rat hippocampus at 300 uCi, iv after 20 mins; type: ADME, organism-based; conditions: in vivo
Plasma [6] = assay: Metabolic stability in Wistar rat plasma assessed as polar metabolite level at 1 mCi, iv after 5 mins; type: ADME, organism-based; conditions: in vivo
Hippocampus [7] = assay: Biodistribution in Wistar rat hippocampus at 300 uCi, iv after 60 mins in presence of GBR-12909; type: ADME, organism-based; conditions: in vivo, 1 h
Pancreas [8] = assay: Biodistribution in Wistar rat pancreas at 300 uCi, iv after 240 mins; type: ADME, organism-based; conditions: in vivo, 4 h
Liver [9] = assay: Biodistribution in Wistar rat liver at 300 uCi, iv after 60 mins; type: ADME, organism-based; conditions: in vivo, 1 h
Cerebellum [10] = assay: Biodistribution in Wistar rat cerebellum at 300 uCi, iv after 20 mins; type: ADME, organism-based; conditions: in vivo
Striatum [11] = assay: Biodistribution in Wistar rat striatum at 300 uCi, iv after 60 mins in presence of GBR-12909; type: ADME, organism-based; conditions: in vivo, 1 h
Lung [12] = assay: Biodistribution in Wistar rat lung at 300 uCi, iv after 60 mins; type: ADME, organism-based; conditions: in vivo, 1 h
Femur [13] = assay: Biodistribution in Wistar rat femur at 300 uCi, iv after 120 mins; type: ADME, organism-based; conditions: in vivo, 2 h
Brain [14] = assay: Biodistribution in Wistar rat rest of brain at 300 uCi, iv after 60 mins in presence of citalopram; type: ADME, organism-based; conditions: in vivo, 1 h
Cortex [15] = assay: Biodistribution in Wistar rat cortex at 300 uCi, iv after 240 mins; type: ADME, organism-based; conditions: in vivo, 4 h
Cerebellum [16] = assay: Biodistribution in Wistar rat cerebellum at 300 uCi, iv after 60 mins in presence of GBR-12909; type: ADME, organism-based; conditions: in vivo, 1 h
Lung [17] = assay: Biodistribution in Wistar rat lung at 300 uCi, iv after 120 mins; type: ADME, organism-based; conditions: in vivo, 2 h
Kidney [18] = assay: Biodistribution in Wistar rat kidney at 300 uCi, iv after 240 mins; type: ADME, organism-based; conditions: in vivo, 4 h
Plasma [19] = assay: Metabolic stability in Wistar rat plasma assessed as polar metabolite level at 1 mCi, iv after 60 mins; type: ADME, organism-based; conditions: in vivo, 1 h
Pancreas [20] = assay: Biodistribution in Wistar rat pancreas at 300 uCi, iv after 5 mins; type: ADME, organism-based; conditions: in vivo
Cortex [21] = assay: Biodistribution in Wistar rat cortex at 300 uCi, iv after 60 mins in presence of citalopram; type: ADME, organism-based; conditions: in vivo, 1 h
[22] = Biodistribution in Wistar rat brown fat at 300 uCi, iv after 120 mins; type: ADME, organism-based, Brown adipose tissue; conditions: in vivo, 2 h
Hippocampus [23] = assay: Biodistribution in Wistar rat hippocampus at 300 uCi, iv after 5 mins; type: ADME, organism-based; conditions: in vivo
Muscle tissue [24] = assay: Biodistribution in Wistar rat muscle at 300 uCi, iv after 5 mins; type: ADME, organism-based; conditions: in vivo
Testes [25] = assay: Biodistribution in Wistar rat testes at 300 uCi, iv after 240 mins; type: ADME, organism-based, Testis; conditions: in vivo, 4 h
Liver [26] = assay: Biodistribution in Wistar rat liver at 300 uCi, iv after 120 mins; type: ADME, organism-based; conditions: in vivo, 2 h
Striatum [27] = assay: Biodistribution in Wistar rat striatum at 300 uCi, iv after 120 mins; type: ADME, organism-based; conditions: in vivo, 2 h
Blood [28] = assay: Biodistribution in Wistar rat blood at 300 uCi, iv after 60 mins in presence of GBR-12909; type: ADME, organism-based; conditions: in vivo, 1 h
[29] = Biodistribution in Wistar rat fat at 300 uCi, iv after 20 mins; type: ADME, organism-based, Adipose tissue; conditions: in vivo
Thymus [30] = assay: Biodistribution in Wistar rat thymus at 300 uCi, iv after 60 mins; type: ADME, organism-based; conditions: in vivo, 1 h
Spleen = assay: Biodistribution in Wistar rat spleen at 300 uCi, iv after 240 mins; type: ADME, organism-based; conditions: in vivo, 4 h
Liver [31] = assay: Biodistribution in Wistar rat liver at 300 uCi, iv after 240 mins; type: ADME, organism-based; conditions: in vivo, 4 h
Brain [32] = assay: Biodistribution in Wistar rat rest of brain at 300 uCi, iv after 60 mins in presence of GBR-12909; type: ADME, organism-based; conditions: in vivo, 1 h
Femur [33] = assay: Biodistribution in Wistar rat femur at 300 uCi, iv after 60 mins; type: ADME, organism-based; conditions: in vivo, 1 h
Muscle tissue [34] = assay: Biodistribution in Wistar rat muscle at 300 uCi, iv after 120 mins; type: ADME, organism-based; conditions: in vivo, 2 h
Blood [35] = assay: Biodistribution in Wistar rat blood at 300 uCi, iv after 60 mins; type: ADME, organism-based; conditions: in vivo, 1 h
[36] = Biodistribution in Wistar rat fat at 300 uCi, iv after 120 mins; type: ADME, organism-based, Adipose tissue; conditions: in vivo, 2 h
Thymus [37] = assay: Biodistribution in Wistar rat thymus at 300 uCi, iv after 240 mins; type: ADME, organism-based; conditions: in vivo, 4 h
Testes [38] = assay: Biodistribution in Wistar rat testes at 300 uCi, iv after 60 mins; type: ADME, organism-based, Testis; conditions: in vivo, 1 h
Blood [39] = assay: Biodistribution in Wistar rat blood at 300 uCi, iv after 5 mins; type: ADME, organism-based; conditions: in vivo
Blood [40] = assay: Biodistribution in Wistar rat blood at 300 uCi, iv after 60 mins in presence of nisoxetine; type: ADME, organism-based; conditions: in vivo, 1 h
Striatum [41] = assay: Biodistribution in Wistar rat striatum at 300 uCi, iv after 240 mins; type: ADME, organism-based; conditions: in vivo, 4 h
[42] = Biodistribution in Wistar rat brown fat at 300 uCi, iv after 240 mins; type: ADME, organism-based, Brown adipose tissue; conditions: in vivo, 4 h
Adrenal = assay: Biodistribution in Wistar rat adrenal gland at 300 uCi, iv after 120 mins; type: ADME, organism-based, Adrenal tissue; conditions: in vivo, 2 h
Pancreas [43] = assay: Biodistribution in Wistar rat pancreas at 300 uCi, iv after 20 mins; type: ADME, organism-based; conditions: in vivo
Hippocampus [44] = assay: Biodistribution in Wistar rat hippocampus at 300 uCi, iv after 240 mins; type: ADME, organism-based; conditions: in vivo, 4 h
[45] = Biodistribution in Wistar rat rest of brain at 300 uCi, iv after 20 mins; type: ADME, organism-based; conditions: in vivo
Cortex [46] = assay: Biodistribution in Wistar rat cortex at 300 uCi, iv after 20 mins; type: ADME, organism-based; conditions: in vivo
Cerebellum [47] = assay: Biodistribution in Wistar rat cerebellum at 300 uCi, iv after 5 mins; type: ADME, organism-based; conditions: in vivo
Heart = assay: Biodistribution in Wistar rat heart at 300 uCi, iv after 20 mins; type: ADME, organism-based; conditions: in vivo
Thymus [48] = assay: Biodistribution in Wistar rat thymus at 300 uCi, iv after 20 mins; type: ADME, organism-based; conditions: in vivo
Hippocampus [49] = assay: Biodistribution in Wistar rat hippocampus at 300 uCi, iv after 60 mins; type: ADME, organism-based; conditions: in vivo, 1 h
[50] = Biodistribution in Wistar rat rest of brain at 300 uCi, iv after 120 mins; type: ADME, organism-based; conditions: in vivo, 2 h
Kidney [51] = assay: Biodistribution in Wistar rat kidney at 300 uCi, iv after 5 mins; type: ADME, organism-based; conditions: in vivo
[52] = Biodistribution in Wistar rat brown fat at 300 uCi, iv after 60 mins; type: ADME, organism-based, Brown adipose tissue; conditions: in vivo, 1 h
Hippocampus [53] = assay: Biodistribution in Wistar rat hippocampus at 300 uCi, iv after 60 mins in presence of nisoxetine; type: ADME, organism-based; conditions: in vivo, 1 h
[54] = Biodistribution in Wistar rat hair and skin at 300 uCi, iv after 60 mins; type: ADME, organism-based; conditions: in vivo, 1 h
Lung [55] = assay: Biodistribution in Wistar rat lung at 300 uCi, iv after 240 mins; type: ADME, organism-based; conditions: in vivo, 4 h
Kidney [56] = assay: Biodistribution in Wistar rat kidney at 300 uCi, iv after 20 mins; type: ADME, organism-based; conditions: in vivo
Cerebellum [57] = assay: Biodistribution in Wistar rat cerebellum at 300 uCi, iv after 60 mins in presence of citalopram; type: ADME, organism-based; conditions: in vivo, 1 h
Kidney [58] = assay: Biodistribution in Wistar rat kidney at 300 uCi, iv after 60 mins; type: ADME, organism-based; conditions: in vivo, 1 h

CN1C2CCC1C(C(=O)OCC[18F])C(c1ccc(Br)cc1)C2 (stereo unspecified)
Drug uptake (Kidney [1]): 1.84 % ID/g | Drug uptake [2]: 0.47 % ID/g | Drug uptake (Striatum [3]): 3.23 % ID/g | Drug uptake (Blood [4]): 0.03 % ID/g | Drug uptake (Hippocampus [5]): 1.99 % ID/g | Stability (Plasma [6]): 42% | Drug uptake (Hippocampus [7]): 1.06 % ID/g | Drug uptake (Pancreas [8]): 0.13 % ID/g | Drug uptake (Liver [9]): 11.8 % ID/g | Drug uptake (Cerebellum [10]): 1.37 % ID/g | Drug uptake (Striatum [11]): 1.51 % ID/g | Drug uptake (Lung [12]): 1.14 % ID/g | Drug uptake (Femur [13]): 0.1 % ID/g | Drug uptake (Brain [14]): 1.56 % ID/g | Drug uptake (Cortex [15]): 0.14 % ID/g | Drug uptake (Cerebellum [16]): 0.62 % ID/g | Drug uptake (Lung [17]): 0.54 % ID/g | Drug uptake (Kidney [18]): 0.83 % ID/g | Stability (Plasma [19]): 85% | Drug uptake (Pancreas [20]): 2.09 % ID/g | Drug uptake (Cortex [21]): 0.97 % ID/g | Drug uptake [22]: 0.21 % ID/g | Drug uptake (Hippocampus [23]): 2.37 % ID/g | Drug uptake (Muscle tissue [24]): 0.42 % ID/g | Drug uptake (Testes [25]): 0.17 % ID/g | Drug uptake (Liver [26]): 15.7 % ID/g | Drug uptake (Striatum [27]): 0.39 % ID/g | Drug uptake (Blood [28]): 0.04 % ID/g | Drug uptake [29]: 0.48 % ID/g | Drug uptake (Thymus [30]): 0.41 % ID/g | Drug uptake (Spleen): 0.12 % ID/g | Drug uptake (Liver [31]): 15.2 % ID/g | Drug uptake (Brain [32]): 1.07 % ID/g | Drug uptake (Femur [33]): 0.17 % ID/g | Drug uptake (Muscle tissue [34]): 0.09 % ID/g | Drug uptake (Blood [35]): 0.025 % ID/g | Drug uptake [36]: 0.16 % ID/g | Drug uptake (Thymus [37]): 0.08 % ID/g | Drug uptake (Testes [38]): 0.5 % ID/g | Drug uptake (Blood [39]): 0.16 % ID/g | Drug uptake (Blood [40]): 0.04 % ID/g | Drug uptake (Striatum [41]): 2.45 % ID/g | Drug uptake [42]: 0.08 % ID/g | Drug uptake (Adrenal): 0.35 % ID/g | Drug uptake (Pancreas [43]): 1.23 % ID/g | Drug uptake (Hippocampus [44]): 0.18 % ID/g | Drug uptake [45]: 2.06 % ID/g | Drug uptake (Cortex [46]): 2.29 % ID/g | Drug uptake (Cerebellum [47]): 1.77 % ID/g | Drug uptake (Heart): 0.48 % ID/g | Drug uptake (Thymus [48]): 0.82 % ID/g | Drug uptake (Hippocampus [49]): 1.12 % ID/g | Drug uptake [50]: 0.59 % ID/g | Drug uptake (Kidney [51]): 4.64 % ID/g | Drug uptake [52]: 0.39 % ID/g | Drug uptake (Hippocampus [53]): 0.91 % ID/g | Drug uptake [54]: 0.29 % ID/g | Drug uptake (Lung [55]): 0.27 % ID/g | Drug uptake (Kidney [56]): 3.51 % ID/g | Drug uptake (Cerebellum [57]): 0.71 % ID/g | Drug uptake (Kidney [58]): 3.1 % ID/g
